Assay results reported in patent publication US8158593B2, “GPR17 modulators, method of screening and uses thereof” (Universita' degli Studi di Milano, priority 2004, dated 2012).

Tests used:
hGPR17 [1] = molecular target: T1, hGPR17 (Homo sapiens, UniProt Q13304); experiment: [35S]GTPγS binding, HEK-293 cells expressing hGPR17; type: biochemical; set-up: expressed in transfected cells; host or cells: HEK-293 (A4); pcDNA3.1; details: HEK-293 cells transfected with hGPR17
Experimental: (§1) [^35S]GTPγS Binding Assay. 1321N1 cells, COS-7 and HEK-293 cells (control and transfected cells) were homogenized in 5 mM TRIS-HCl, 2 mM EDTA, pH 7.4 and centrifuged at 48000 g for 15 min at 4° C. The resulting pellets (plasma membranes) were washed in 50 mM TRIS-HCl, 10 mM MgCl2, pH 7.4 and stored at −80° C. until used. Measurement of nucleotide-stimulated [^35S]GTPγS binding to membranes of cells expressing the human or rat GPR17 receptor was performed as previously described^9-11.
To identify the endogenous ligand of GPR17, the cDNAs from human and rat GPR17 were cloned into the mammalian expression vector pcDNA3.1 and transfected in 1321N1, COS-7 and HEK-293 cells for functional characterization. GPR17 activation was assessed by testing the ability of exogenously-added ligands to increase [^35S]GTPγS binding to purified membranes obtained from transfected cells^9-11. […] The specificity of GPR17 responses were also challenged by assessing the ability of some purinergic and leukotriene receptor antagonists to counteract the increase of [^35S]GTPγS binding evoked by nucleotides and cys-LTs in 1321N1 cells expressing either the human or rat receptor. […]

rat GPR17 = molecular target: T2, rat GPR17 (Rattus norvegicus, UniProt Q09QM4); experiment: [35S]GTPγS binding to membranes of 1321N1 cells expressing rat GPR17; type: biochemical; details: agonist; 1321N1 cells expressing rat GPR17
T2 construct: expressed in transfected cells; host or cells: 1321N1; pcDNA3.1
T2 sequence (Q09QM4 whole entry): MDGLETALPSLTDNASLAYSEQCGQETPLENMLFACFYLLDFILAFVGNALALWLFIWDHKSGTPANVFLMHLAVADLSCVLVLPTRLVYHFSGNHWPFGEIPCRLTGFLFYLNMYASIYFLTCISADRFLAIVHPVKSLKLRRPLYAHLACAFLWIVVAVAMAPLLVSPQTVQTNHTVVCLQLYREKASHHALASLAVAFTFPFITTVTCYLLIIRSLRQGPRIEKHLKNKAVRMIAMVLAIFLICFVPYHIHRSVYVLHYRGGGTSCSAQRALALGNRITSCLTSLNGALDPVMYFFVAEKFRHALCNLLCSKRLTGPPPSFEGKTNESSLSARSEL
Experimental: as §1
To identify the endogenous ligand of GPR17, the cDNAs from human and rat GPR17 were cloned into the mammalian expression vector pcDNA3.1 and transfected in 1321N1, COS-7 and HEK-293 cells for functional characterization. GPR17 activation was assessed by testing the ability of exogenously-added ligands to increase [^35S]GTPγS binding to purified membranes obtained from transfected cells^9-11. […] The specificity of GPR17 responses were also challenged by assessing the ability of some purinergic and leukotriene receptor antagonists to counteract the increase of [^35S]GTPγS binding evoked by nucleotides and cys-LTs in 1321N1 cells expressing either the human or rat receptor. […] Because both P2Y^2,11,12 and CysLT receptors^3,13 may couple to G proteins of the Gi subfamily, to evaluate the involvement of this class of G-proteins, we preincubated 1321N1 cells expressing hGPR17 with pertussis toxin (PTX) which inactivates Gi proteins, prior to membrane preparation and [^35S]GTPγS binding.
Table 1. Potency of various ligands on [^35S]GTPγS binding to membranes obtaind from 1321N1 cells-transfected with human or rat GPR17. […] All data represent the mean of triplicate determinations from 4-9 independent experiments.

hGPR17 [2] = molecular target: T1, hGPR17; experiment: Single cell calcium imaging in 1321N1 cells expressing hGPR17; type: cell-based; set-up: expressed in transfected cells; host or cells: 1321N1 (A1, A5), COS-7 (A3, A6), HEK-293 (A4); pcDNA3.1
Text: Polychrome IV (TILL Photonics, Germany) was used as light source. Fura-2 and EGFP fluorescence images were collected with a PCO Super […] (Axon Instruments, Forest City, Calif.) and analyzed with the Axon Imaging Workbench 2.2 software (Axon Instruments).

T1 sequence (Q13304 29-367): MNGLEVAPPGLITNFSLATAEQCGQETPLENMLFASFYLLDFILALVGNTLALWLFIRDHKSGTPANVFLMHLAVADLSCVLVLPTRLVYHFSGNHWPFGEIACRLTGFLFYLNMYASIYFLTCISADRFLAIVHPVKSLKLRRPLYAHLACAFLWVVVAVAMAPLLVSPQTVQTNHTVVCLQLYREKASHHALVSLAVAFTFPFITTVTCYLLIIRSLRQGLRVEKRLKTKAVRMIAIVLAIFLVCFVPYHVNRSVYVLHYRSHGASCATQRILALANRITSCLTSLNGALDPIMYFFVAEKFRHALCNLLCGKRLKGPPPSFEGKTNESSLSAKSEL

response in [35S]GTPγS binding (hGPR17 [1]): induced responses | EC50 (rat GPR17): 4.6 ± 0.6 µM | cells showing rise of [Ca2+]i (hGPR17 [2]): approximately 30%
SMILES: O=c1ccn([C@@H]2O[C@H](COP(=O)(O)OP(=O)(O)O)[C@@H](O)[C@H]2O)c(=O)[nH]1 [UDP]
